The values below are quoted from earlier work in article PMC10145264, “Synthesis and Biological Properties of EGFR-Targeted Photosensitizer Based on Cationic Porphyrin” (Pharmaceutics, 2023).

On the set-up of data set [1]: method as in PMID 24063545. Conditions: standard value.
Details of data set [2]: method as in doi:10.1016/j.chemphys.2006.07.040, doi:10.1007/BF03356111, doi:10.1016/j.jphotochemrev.2020.100401. The settings on record: standard value.

`C1=Cc2nc1c(-c1ccccc1)c1ccc([n-]1)c(-c1ccccc1)c1nc(c(-c3ccccc3)c3ccc([n-]3)c2-c2ccccc2)C=C1.[Zn+2]` [ZnTPP, zinc tetraphenylporphyrin]: in data set [1], the “singlet oxygen quantum yield (ΦΔ)” value was 0.74. Besides, the “fluorescence quantum yield (ΦF)” value in data set [2] is given as 0.033.
